Tests used:
[1] = system: antibodies in sera from SARS patients (sera 1a, 1b, 2, 6, 37, 62, London, SARS-yellow, SARS-green); type: binding, human; parameters: Binding of serum 6 to linear peptides of protein X1 of SARS-CoV Urbani / Binding of serum 37 to linear peptides of protein X1 of SARS-CoV Urbani / Binding of serum 6 to looped/cyclic peptide (PEPSCAN-ELISA) / Binding of serum 37 to looped/cyclic peptide (PEPSCAN-ELISA) / Binding of serum 37 to looped/cyclic peptides of protein X1 of SARS-CoV Urbani / Binding of serum 6 to linear peptides of protein X2 / Binding of serum 37 to linear peptides of protein X2 / Binding of serum 37 to looped/cyclic peptides of protein X2 of SARS-CoV Urbani / Binding of serum 6 to linear peptides of protein M of SARS-CoV Urbani / Binding of serum 37 to linear peptides of protein M of SARS-CoV Urbani / Binding of serum 6 to looped/cyclic peptides of protein M of SARS-CoV Urbani / Binding of serum 37 to looped/cyclic peptides of protein M of SARS-CoV Urbani / Binding of serum 6 to linear peptides of protein X3 of SARS-CoV Urbani / Binding of serum 37 to linear peptides of protein X3 of SARS-CoV Urbani / Binding of serum 37 to looped/cyclic peptides of protein X3 of SARS-CoV Urbani / Binding of serum 6 to linear peptides of protein X4 of SARS-CoV Urbani / Binding of serum 37 to linear peptides of protein X4 of SARS-CoV Urbani / Binding of serum 37 to looped/cyclic peptides of protein X4 of SARS-CoV Urbani / Binding of serum 6 to linear peptides of protein X5 of SARS-CoV Urbani / Binding of serum 37 to linear peptides of protein X5 of SARS-CoV Urbani / Binding of serum 37 to looped/cyclic peptides of protein X5 of SARS-CoV Urbani / Binding of serum 6 to linear peptides of protein N of SARS-CoV Urbani / Binding of serum 37 to linear peptides of protein N of SARS-CoV Urbani / Binding of serum 6 to linear peptide (PEPSCAN-ELISA) / Binding of serum 1a to looped/cyclic peptides of protein N of SARS-CoV Urbani / Binding of serum 1b to looped/cyclic peptides of protein N of SARS-CoV Urbani / Binding of serum 2 to looped/cyclic peptides of protein N of SARS-CoV Urbani / Binding of serum 6 to looped/cyclic peptides of protein N of SARS-CoV Urbani / Binding of serum 37 to looped/cyclic peptides of protein N of SARS-CoV Urbani / Binding of serum 62 to looped/cyclic peptides of protein N of SARS-CoV Urbani / Binding of serum London to looped/cyclic peptides of protein N of SARS-CoV Urbani / Binding of serum SARS-green to looped/cyclic peptides of protein N of SARS-CoV Urbani: unit not given here
[2] = system: rabbit serum obtained by immunizing a rabbit with the SARS-CoV strain Frankfurt 1; type: binding; parameters: Binding of a rabbit serum to linear peptides / Binding of a rabbit serum to looped peptides / Rabbit serum linear peptides / Rabbit serum looped peptides / Binding of a rabbit serum to linear peptides of protein N of SARS-CoV Urbani (Rabbit serum linear peptides) / Binding of a rabbit serum to looped/cyclic peptides of protein N of SARS-CoV Urbani (Rabbit serum looped peptides): unit not given here
[3] = system: control sera (pooled serum of ten healthy LUMC hospital workers; commercial negative donor pooled serum from the Dutch bloodbank); type: binding, human; parameters: Binding of Control serum LUMC to linear peptides / Binding of Control serum Blood-bank to linear peptides / Binding of Control serum LUMC to looped peptides / Binding of Control Serum Blood-Bank to Looped peptides / Binding of Control serum LUMC to linear peptides of the protein M of SARS-CoV Urbani / Binding of Control serum Blood-bank to linear peptides of the protein M of SARS-CoV Urbani / Binding of Control serum LUMC to looped peptides of the protein M of SARS-CoV Urbani / Binding of Control Serum Blood-Bank to Looped peptides of the protein M of SARS-CoV Urbani: unit not given here

For LKQLLEQWNLVIGFL, the “Binding of serum 1a to linear peptides of protein M of SARS-CoV Urbani” value [1] was 0.7, the “Binding of serum 1a to looped/cyclic peptides of protein M of SARS-CoV Urbani” value [1] was 0.6 and the “Binding of serum 1b to linear peptides of protein M of SARS-CoV Urbani” value [1] was 0.5. The “Binding of serum 1b to looped/cyclic peptides of protein M of SARS-CoV Urbani” value [1] was 0.6, the “Binding of serum 2 to linear peptides of protein M of SARS-CoV Urbani” value [1] was 0.6 and the “Binding of serum 2 to looped/cyclic peptides of protein M of SARS-CoV Urbani” value [1] was 0.4. The “Binding of serum 6 to linear peptides of protein M of SARS-CoV Urbani” value [1] was 0.7, the “Binding of serum 6 to looped/cyclic peptides of protein M of SARS-CoV Urbani” value [1] was 0.8 and the “Binding of serum 37 to linear peptides of protein M of SARS-CoV Urbani” value [1] was 0.7. The “Binding of serum 37 to looped/cyclic peptides of protein M of SARS-CoV Urbani” value [1] was 0.5, the “Binding of serum 62 to linear peptides of protein M of SARS-CoV Urbani” value [1] was 0.7 and the “Binding of serum 62 to looped/cyclic peptides of protein M of SARS-CoV Urbani” value [1] was 0.7. The “Binding of serum London to linear peptides of protein M of SARS-CoV Urbani” value [1] was 1.0, the “Binding of serum London to looped/cyclic peptides of protein M of SARS-CoV Urbani” value [1] was 0.2 and the “Binding of serum SARS-green to linear peptides of protein M of SARS-CoV Urbani” value [1] was 0.2. The “Binding of serum SARS-green to looped/cyclic peptides of protein M of SARS-CoV Urbani” value [1] was 0.4, the “Binding of serum SARS-yellow to linear peptides of protein M of SARS-CoV Urbani” value [1] was 0.1 and the “Binding of serum SARS-yellow to looped/cyclic peptides of protein M of SARS-CoV Urbani” value [1] was 0.7. For the same sequence, the “Rabbit serum linear peptides” value [2] was 0.2, the “Rabbit serum looped peptides” value [2] was 0.1 and the “Binding of Control Serum Blood-Bank to Looped peptides of the protein M of SARS-CoV Urbani” value [3] was 0.7. For the same sequence, the “Binding of Control serum Blood-bank to linear peptides of the protein M of SARS-CoV Urbani” value [3] was 0.7, the “Binding of Control serum LUMC to linear peptides of the protein M of SARS-CoV Urbani” value [3] was 0.3 and the “Binding of Control serum LUMC to looped peptides of the protein M of SARS-CoV Urbani” value [3] was 0.7.

For ASFRLFARTRSMWSF, the “Binding of serum 1a to linear peptides of protein M of SARS-CoV Urbani” value [1] was 0.7, the “Binding of serum 1a to looped/cyclic peptides of protein M of SARS-CoV Urbani” value [1] was 0.6 and the “Binding of serum 1b to linear peptides of protein M of SARS-CoV Urbani” value [1] was 0.6. For the same sequence, the “Binding of serum 1b to looped/cyclic peptides of protein M of SARS-CoV Urbani” value [1] was 0.5, the “Binding of serum 2 to linear peptides of protein M of SARS-CoV Urbani” value [1] was 0.5 and the “Binding of serum 2 to looped/cyclic peptides of protein M of SARS-CoV Urbani” value [1] was 0.5. For the same sequence, the “Binding of serum 6 to linear peptides of protein M of SARS-CoV Urbani” value [1] was 0.7, the “Binding of serum 6 to looped/cyclic peptides of protein M of SARS-CoV Urbani” value [1] was 0.9 and the “Binding of serum 37 to linear peptides of protein M of SARS-CoV Urbani” value [1] was 0.4. For the same sequence, the “Binding of serum 37 to looped/cyclic peptides of protein M of SARS-CoV Urbani” value [1] was 0.5, the “Binding of serum 62 to linear peptides of protein M of SARS-CoV Urbani” value [1] was 0.4 and the “Binding of serum 62 to looped/cyclic peptides of protein M of SARS-CoV Urbani” value [1] was 0.5. For the same sequence, the “Binding of serum London to linear peptides of protein M of SARS-CoV Urbani” value [1] was 0.3, the “Binding of serum London to looped/cyclic peptides of protein M of SARS-CoV Urbani” value [1] was 0.2 and the “Binding of serum SARS-green to linear peptides of protein M of SARS-CoV Urbani” value [1] was 0.4. The “Binding of serum SARS-green to looped/cyclic peptides of protein M of SARS-CoV Urbani” value [1] was 0.2, the “Binding of serum SARS-yellow to linear peptides of protein M of SARS-CoV Urbani” value [1] was 0.2 and the “Binding of serum SARS-yellow to looped/cyclic peptides of protein M of SARS-CoV Urbani” value [1] was 0.6. For the same sequence, the “Rabbit serum linear peptides” value [2] was 0.3, the “Rabbit serum looped peptides” value [2] was 0.2 and the “Binding of Control Serum Blood-Bank to Looped peptides of the protein M of SARS-CoV Urbani” value [3] was 0.7. For the same sequence, the “Binding of Control serum Blood-bank to linear peptides of the protein M of SARS-CoV Urbani” value [3] was 0.7, the “Binding of Control serum LUMC to linear peptides of the protein M of SARS-CoV Urbani” value [3] was 0.6 and the “Binding of Control serum LUMC to looped peptides of the protein M of SARS-CoV Urbani” value [3] was 0.7.

SLPFGWLVIGVAFLA was tested, and the “Binding of serum 1a to linear peptides of protein X1 of SARS-CoV Urbani” value [1] was 0.7, the “Binding of serum 1a to looped/cyclic peptide (PEPSCAN-ELISA)” value [1] was 0.3 and the “Binding of serum 1b to linear peptides of protein X1 of SARS-CoV Urbani” value [1] was 0.6. The “Binding of serum 1b to looped/cyclic peptide (PEPSCAN-ELISA)” value [1] was 0.2, the “Binding of serum 2 to linear peptides of protein X1 of SARS-CoV Urbani” value [1] was 0.5 and the “Binding of serum 2 to looped/cyclic peptide (PEPSCAN-ELISA)” value [1] was 0.2. The “Binding of serum 6 to linear peptides of protein X1 of SARS-CoV Urbani” value [1] was 0.4, the “Binding of serum 6 to looped/cyclic peptide (PEPSCAN-ELISA)” value [1] was 0.0 and the “Binding of serum 37 to linear peptides of protein X1 of SARS-CoV Urbani” value [1] was 0.6. The “Binding of serum 37 to looped/cyclic peptide (PEPSCAN-ELISA)” value [1] was 0.3, the “Binding of serum 62 to linear peptides of protein X1 of SARS-CoV Urbani” value [1] was 0.5 and the “Binding of serum 62 to looped/cyclic peptide (PEPSCAN-ELISA)” value [1] was 0.3. The “Binding of serum London to linear peptides of protein X1 of SARS-CoV Urbani” value [1] was 0.2, the “Binding of serum London to looped/cyclic peptide (PEPSCAN-ELISA)” value [1] was 0.2 and the “Binding of serum SARS-green to linear peptides of protein X1 of SARS-CoV Urbani” value [1] was 0.2. For the same sequence, the “Binding of serum SARS-green to looped/cyclic peptide (PEPSCAN-ELISA)” value [1] was 0.3, the “Binding of serum SARS-yellow to linear peptides of protein X1 of SARS-CoV Urbani” value [1] was 0.4 and the “Binding of serum SARS-yellow to looped/cyclic peptide (PEPSCAN-ELISA)” value [1] was 0.2. For the same sequence, the “Binding of a rabbit serum to linear peptides” value [2] was 0.4, the “Binding of a rabbit serum to looped peptides” value [2] was 0.1 and the “Binding of Control Serum Blood-Bank to Looped peptides” value [3] was 0.4. For the same sequence, the “Binding of Control serum Blood-bank to linear peptides” value [3] was 0.6, the “Binding of Control serum LUMC to linear peptides” value [3] was 0.6 and the “Binding of Control serum LUMC to looped peptides” value [3] was 0.3.

Reference: patent publication US20070128217A1 (priority 2003, published 2007)
